The values that follow come from patent US10611757B2, “Crystalline form of chemical compound, and preparation method, composition, and application thereof” (WUHAN LL SCIENCE AND TECHNOLOGY DEVELOPMENT CO., LTD., priority 2016, dated 2020).

Data set [1] relates to spontaneously hypertensive rats. The experiment in a line: Antihypertensive efficacy test in spontaneously hypertensive rats (systolic blood pressure and heart rate by implanted sensor). It is filed as in vivo, rat. Particulars: SHR, 1 mg/kg; for Systolic blood pressure change / Heart rate change: average ± standard error; for Heart rate change: oral. As for the experimental part:
12-week-old spontaneously hypertensive rats (hereinafter referred to as SHR, purchased from Beijing Weitong Lihua Experimental Animal Technology Co., Ltd.) were anesthetized with 2.5% sodium pentobarbital for intraperitoneal injection. After that, the blood pressure sensing catheter of hypertension implant was inserted into their abdominal aorta, while the implant was fixed to the abdominal wall, and then postoperative daily care was performed after suturing.
Rats with systolic blood pressure exceeding 160 mm Hg were divided into 3 groups (control group, compound (A) group and compound (B) group), wherein each group has 8 rats. The control group was administrated 0.5% sodium carboxymethyl cellulose (hereinafter referred to as CMC-Na); the compound (B) group and the compound (A) group were respectively administered the compound (B) and the compound (A), both of which were dissolved by 0.5% CMC-Na, by intragastric administration, at a dose of 1 mg/kg (calculated by the effective dose of valsartan) and a volume calculated by 4 mL/kg.
The systolic blood pressure and heart rate of SHR were compared before and after administration (the systolic blood pressure and heart rate of SHR before administration as reference value), which were detected three times at each time point with the average value recorded.

The nature of data set [2]: Competition test between crystalline forms at room temperature (ethyl acetate suspension, XRD). It is filed as physicochemical. The conditions noted are these: for stability under room temperature relative to the competing form: competition in ethyl acetate suspension. On the procedure: Equivalent amounts of crystalline form I and crystalline form II samples were mixed well, added with 0.8 ml ethyl acetate to form a suspension, stirred overnight and detected by XRD.
Equivalent amounts of crystalline form II and form III samples were mixed well, added with 0.2 ml ethyl acetate to form a suspension, which was stirred overnight to obtain a crystalline form II determined by XRD detection.
Equivalent amounts of crystalline form I and form III samples were mixed uniformly, added with 0.2 ml ethyl acetate to form a suspension, which was stirred overnight, to obtain a crystalline form I determined by XRD detection.

The nature of data set [3]: Comparative stability of crystalline form III and IV on drying overnight at room temperature (XRD). It is filed as physicochemical. From the text: The crystalline form III and the crystalline form IV samples were respectively dried overnight at room temperature.
Data set [4] in a line: Comparative stability test (total impurity content, 25° C., 60% relative humidity). It is filed as physicochemical. Particulars: for total impurity content: packed; for chemical stability relative to the amorphous form: total impurity content. As for the experimental part:
The stability of an amorphous form, the crystalline form I, a mixture of the crystalline form I and the crystal II, the crystal II, and the crystalline form III of the compound (A) was investigated. Specifically, the amorphous form, the crystalline form I, the mixture of the crystalline form I and the crystalline form II (weight ratio 1:2), the crystalline form II and the crystalline form III were taken 200 mg respectively to be investigated as follows:
Packing: Polyvinyl chloride (PVC) ziplock bag (the inner layer) was vacuumized, aluminum foil (the middle layer) was vacuumized, and aluminum foil desiccant (the outer layer) was vacuum and filled in with nitrogen;
Inspection conditions: 25° C., 60% relative humidity. The indicator was the total impurity content, which is determined by detection of samples three times at each time point with the average value recorded. The time points for sampling include 0, 1, 2, 3 and 6 months after packing.

Data set [5] can be described thus: Effects of tabletting processes on the crystalline form II (XRD). The data set is classed as physicochemical. The conditions noted are these: tableted under 20 kg and 25 kg pressure. As for the experimental part:
Tabletting method: 50 mg of the crystalline form II was tableted under 20 kg and 25 kg pressure by a single punching machine.
The XRD of the obtained sample powder was compared with the XRD of the crude sample, the results are shown in FIG. 8 (from top to bottom: the crude sample, the sample after 25 kg pressure tabletting and the sample after 20 kg pressure tabletting).

A short description of data set [6]: Influences of high temperature and high humidity on the crystalline form II (XRD). The data set is classed as physicochemical. Particulars: 10 days. On the procedure:
Two samples of 20 mg the crystalline form II were respectively placed at 60° C. (sealed and shielded from light) and 85% relative humidity (exposed in the air at room temperature and shielded from light), detected by XRD after 10 days and compared with XRD of the crude sample.

Where [7] appears, read: intragastric, 1 hour after administration.
Where [8] appears, read: intragastric, 3 hours after administration.
Where [9] appears, read: intragastric, 5 hours after administration.
The mark [10] stands for this setting: intragastric, 7 hours after administration.
Where [11] appears, read: intragastric, 10 hours after administration.
[12] abbreviates: intragastric, 24 hours after administration.
Setting [13] is: intragastric, before administration (reference value).
Where [14] appears, read: before administration (reference value).

Entries after “also recorded” stand apart in the source; their conditions may differ.

With `CCOc1nc2cccc(C(=O)OC(C)OC(=O)OCc3nc(C)c(C)nc3C)c2n1Cc1ccc(-c2ccccc2-c2noc(=O)[n-]2)cc1.[K+]` (stereo not shown) [Compound (A)], the “effect of lowering heart rate compared with the compound (B) group” value in data set [1] is listed as “more potent with longer-lasting effect of lowering heart rate”. Further, the “antihypertensive effect compared with the compound (B) group” value in data set [1] (intragastric) was “more potent with longer-lasting antihypertensive effect”. In addition, the “Systolic blood pressure change” value was −7.0 ± 3.4 mmHg in data set [1] (setting [7]); −34.3 ± 1.9 mmHg in data set [1] (setting [8]); −46.5 ± 2.5 mmHg in data set [1] (setting [9]); −49.4 ± 4.1 mmHg in data set [1] (setting [10]); −45.3 ± 3.3 mmHg in data set [1] (setting [11]); −25.9 ± 3.4 mmHg in data set [1] (setting [12]). The “Systolic blood pressure change” value in data set [1] (setting [13]) was 0.0 ± 0.0 mmHg. The Heart rate change in data set [1] (1 hour after administration) is −3.6 ± 2.4 times/minute; in data set [1] (3 hours after administration), −5.0 ± 2.5 times/minute; in data set [1] (5 hours after administration), −10.1 ± 3.0 times/minute; in data set [1] (7 hours after administration), −17.5 ± 3.0 times/minute; in data set [1] (10 hours after administration) it was −25.4 ± 2.4 times/minute; in data set [1] (24 hours after administration) it was −28.6 ± 8 times/minute. In addition, in data set [1] (setting [14]), the Heart rate change worked out at 0.0 ± 0.0 times/minute.
Consider `CCOc1nc2cccc(C(=O)OC(C)OC(=O)OCc3nc(C)c(C)nc3C)c2n1Cc1ccc(-c2ccccc2-c2noc(=O)[nH]2)cc1` (stereo not shown) [Compound (B), reference compound], for which the “Systolic blood pressure change” value is given as −4.9 ± 4.8 mmHg in data set [1] (setting [7]); −22.0 ± 3.6 mmHg in data set [1] (setting [8]); −30.5 ± 3.5 mmHg in data set [1] (setting [9]); −38.8 ± 2.3 mmHg in data set [1] (setting [10]); −33.0 ± 1.7 mmHg in data set [1] (setting [11]); −10.2 ± 2.1 mmHg in data set [1] (setting [12]). Moreover, in data set [1] (setting [13]), the “Systolic blood pressure change” value amounted to 0.0 ± 0.0 mmHg. Also, the Heart rate change was −3.4 ± 2.6 times/minute in data set [1] (1 hour after administration); −2.33 ± 2.6 times/minute in data set [1] (3 hours after administration); −6.5 ± 2.8 times/minute in data set [1] (5 hours after administration); −6.2 ± 3.0 times/minute in data set [1] (7 hours after administration); −12.3 ± 2.8 times/minute in data set [1] (10 hours after administration); −6.7 ± 2.6 times/minute in data set [1] (24 hours after administration). The Heart rate change in data set [1] (setting [14]) was 0.0 ± 0.0 times/minute.
For `CCOc1nc2cccc(C(=O)OC(C)OC(=O)OCc3nc(C)c(C)nc3C)c2n1Cc1ccc(-c2ccccc2-c2noc(=O)[n-]2)cc1.[K+]` (stereo not shown) [crystalline form III], in data set [2] (equivalent amounts of form I and form III, ethyl acetate suspension, stirred overnight, XRD), the “transformation of crystalline form in competition with form I” value is reported as “completely transformed into the crystalline form I”. For the same compound, in data set [2] (equivalent amounts of form II and form III, ethyl acetate suspension, stirred overnight, XRD), the “transformation of crystalline form in competition with form II” value is on record as “completely transformed into the crystalline form II”. Besides, in data set [3] (dried overnight at room temperature, XRD), the “share converted to the crystalline form I” value is recorded as “no more than 30%”. Moreover, the “stability at room temperature relative to crystalline form IV” value in data set [3] is reported as “superior to that of the crystalline form IV”. Further, the total impurity content in data set [4] (0 months) is 1.56%; in data set [4] (1 month), 2.55%; in data set [4] (2 months), 2.98%; in data set [4] (3 months), 3.34%; in data set [4] (6 months), 3.76%. In addition, the “chemical stability relative to the amorphous form” value in data set [4] was “better than the amorphous form”.
Turning to `CCOc1nc2cccc(C(=O)OC(C)OC(=O)OCc3nc(C)c(C)nc3C)c2n1Cc1ccc(-c2ccccc2-c2noc(=O)[n-]2)cc1.[K+]` (stereo not shown) [crystalline form II], the “stability under room temperature relative to the competing form” value in data set [2] is listed as “better than that of form I; also recorded: better than that of form III”. Besides, in data set [3], the “stability at room temperature relative to crystalline form IV” value is “superior to that of the crystalline form IV”. Besides, the “crystalline form after tabletting” value in data set [5] is “remains unchanged”. The “crystalline form after high temperature” value in data set [6] (60° C., sealed and shielded from light) is on record as “remains unchanged”. The “crystalline form after high humidity” value in data set [6] (85% relative humidity, room temperature, shielded from light) is reported as “remains unchanged”. Further, the total impurity content was found to be 1.29% in data set [4] (0 months); 1.43% in data set [4] (1 month); 1.59% in data set [4] (2 months); 1.82% in data set [4] (3 months); 1.87% in data set [4] (6 months). The “chemical stability relative to the amorphous form” value in data set [4] was “better than the amorphous form”.
Regarding `CCOc1nc2cccc(C(=O)OC(C)OC(=O)OCc3nc(C)c(C)nc3C)c2n1Cc1ccc(-c2ccccc2-c2noc(=O)[n-]2)cc1.[K+]` (stereo not shown) [crystalline form IV], the “transformation of crystalline form on drying” value in data set [3] (dried at room temperature, XRD) is given as “converted to crystalline form I; also recorded: completely transformed into the crystalline form I”.
For the compound `CCOc1nc2cccc(C(=O)OC(C)OC(=O)OCc3nc(C)c(C)nc3C)c2n1Cc1ccc(-c2ccccc2-c2noc(=O)[n-]2)cc1.[K+]` (stereo not shown) [crystalline form I], the “stability under room temperature relative to the competing form” value in data set [2] is “better than that of the crystalline form III”. For the same compound, the “content of crystalline form I in the obtained product” value in data set [2] (equivalent amounts of form I and form II, ethyl acetate suspension, stirred overnight, XRD) is given as “about 5%”. Also, the “stability at room temperature relative to crystalline form IV” value in data set [3] is reported as “superior to that of the crystalline form IV”. Further, the total impurity content in data set [4] (0 months) is reported as 1.11%; in data set [4] (1 month), 1.62%; in data set [4] (2 months), 2.34%; in data set [4] (3 months), 2.49%; in data set [4] (6 months), 3.10%. In addition, the “chemical stability relative to the amorphous form” value in data set [4] is given as “better than the amorphous form”.
`CCOc1nc2cccc(C(=O)OC(C)OC(=O)OCc3nc(C)c(C)nc3C)c2n1Cc1ccc(-c2ccccc2-c2noc(=O)[n-]2)cc1.[K+]` (stereo not shown) [mixture of crystalline form I and II]: the total impurity content was determined as 0.90% in data set [4] (0 months); 1.58% in data set [4] (1 month); 2.20% in data set [4] (2 months); 2.40% in data set [4] (3 months); 3.29% in data set [4] (6 months). For the same compound, in data set [4], the “chemical stability relative to the amorphous form” value is listed as “better than the amorphous form”.
